Assays:
[1] = target: T1, DPP-IV, obtained from porcine kidneys (Sus scrofa, UniProt P22411); assay: Measurement of DPPIV inhibiting effects (Gly-Pro-p-nitroanilide, absorbance at 405 nm); assay type: biochemical; conditions: porcine kidney DPP-IV 10 mU/mL, 20 min preincubation, Gly-Pro-p-nitroanilide 0.33 mM, pH 7.4
T1 construct: DPP-IV, obtained from porcine kidneys; from tissue; host or cells: porcine kidney
Method: Measurement of DPPIV Inhibiting Effects
DPP-IV, obtained from porcine kidneys, was dissolved in a reaction buffer solution (50 mM Tris-HCl, pH 7.4, 0.1% BSA) such that the concentration of DPP-IV was at 10 mU/mL. This solution (110 μl) was placed into test tubes, to which compounds to be tested were further added at a quantity of 15 μl and incubated at room temperature for 20 minutes. Twenty-five microliters of a solution in which Gly-Pro-p-nitroanilide was dissolved at 2 mM was added (final concentration, 0.33 mM) to start the enzymatic reaction. The reaction time was 20 minutes. The reaction was stopped by the addition of 25 μl of 1 N phosphoric acid.

[2] = tested on: male C57BL/6N mice; assay: Glucose-tolerance improving effects in normal mice, Experiments 1 and 2 (compound given orally mixed with glucose); assay type: in vivo; conditions: for Blood Glucose, At Indicated Times (min.) After Oral Administration: mean ± standard error
Method: (§1) Test for Identifying Glucose-Tolerance Improving Effects
(§2) Effects on Glucose-Tolerance Ability of Normal Mice
(§3) Animals: Five or six male C57BL/6N mice per group (purchased from Charles River Japan, Inc.).
Compounds to be tested were suspended in a 0.5% aqueous solution of methylcellulose and mixed with an equal volume of a glucose solution, and administered orally at a volume of 10 ml/kg at doses indicated in Tables below. Vehicle control groups received orally a mixture of a 0.5% aqueous solution of methylcellulose and an equal volume of a glucose solution at a volume of 10 ml/kg. Glucose was given at a dose of 2 g/kg.
The blood was drawn from the tail vein immediately before and at 30, 60, and 120 minutes after the administration of mixed solutions of the compounds to be tested and glucose, and subjected to the measurement of the blood glucose value.
(§4) The tail vein of the mice was injured, without anesthesia, with a razor to cause slight bleeding. Ten microliters of blood was collected, and mixed immediately with […] of 0.6 M perchloric acid. The glucose in supernatants obtained by centrifugation (1500 g, 10 min. 4° C., in a cooled centrifuge GS-6KR from Beckman Ltd.) was determined employing a Glucose CII Test Wako kit (Wako Pure Chemical Industries, Ltd.).
(§5) The results are expressed by mean value±standard error.

[3] = tested on: male C57BL/6N mice; assay: Glucose-tolerance improving effects in normal mice, Experiment 3 (compound given orally 30 minutes before glucose); assay type: in vivo; conditions: for Blood Glucose, At Indicated Times After Glucose-Solution Administration (min.): 1 mg/kg oral 30 min before glucose 2 g/kg, mean ± standard error
Method: as §1, §2, §3
The suspension of the compound to be tested and 0.5% methylcellulose solution which was the vehicle control group were administered orally at a volume of 10 ml/kg, and at 30 minutes after administration, a glucose solution was administered orally at a volume of 10 ml/kg. Glucose was given at a dose of 2 g/kg.
The blood was drawn from the tail vein immediately before the administration of the compound to be tested, and immediately before and at 30, 60, and 120 minutes after the administration of the glucose solution, and subjected to the measurement of the blood glucose value.
as §4, §5

T1 sequence (P22411 whole entry): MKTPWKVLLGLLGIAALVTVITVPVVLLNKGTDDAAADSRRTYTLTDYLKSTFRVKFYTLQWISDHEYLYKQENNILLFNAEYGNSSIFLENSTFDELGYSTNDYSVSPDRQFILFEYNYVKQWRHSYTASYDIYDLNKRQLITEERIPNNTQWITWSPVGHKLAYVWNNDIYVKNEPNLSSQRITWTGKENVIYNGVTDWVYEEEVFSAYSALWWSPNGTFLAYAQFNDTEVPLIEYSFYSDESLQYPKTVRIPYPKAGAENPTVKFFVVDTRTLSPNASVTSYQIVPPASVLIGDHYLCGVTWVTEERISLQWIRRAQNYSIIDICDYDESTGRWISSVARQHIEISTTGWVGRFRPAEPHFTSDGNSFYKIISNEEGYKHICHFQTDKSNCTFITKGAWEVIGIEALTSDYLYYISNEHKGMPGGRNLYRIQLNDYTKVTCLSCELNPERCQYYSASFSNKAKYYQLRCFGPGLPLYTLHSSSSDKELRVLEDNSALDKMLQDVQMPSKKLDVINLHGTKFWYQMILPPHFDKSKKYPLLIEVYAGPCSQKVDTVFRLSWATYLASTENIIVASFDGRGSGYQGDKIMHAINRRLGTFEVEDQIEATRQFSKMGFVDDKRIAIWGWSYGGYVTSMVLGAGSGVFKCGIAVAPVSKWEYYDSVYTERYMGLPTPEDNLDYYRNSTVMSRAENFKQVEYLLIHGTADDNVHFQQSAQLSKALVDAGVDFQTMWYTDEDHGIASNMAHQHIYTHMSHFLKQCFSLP

CN(C)C(=O)n1cnc(S(=O)(=O)Cc2ccccc2)n1 [Example 2, 3-Benzylsulfonyl-1-dimethylcarbamoyl-1H-1,2,4-triazole]
IC50 [1]: 1390 nM
Blood Glucose, At Indicated Times (min.) After Oral Administration ([2]; Experiment 1, 30 mg/kg oral with glucose 2 g/kg, 0 min (immediately before administration)): 75.8 ± 1.5 mg/dL
Blood Glucose, At Indicated Times (min.) After Oral Administration ([2]; Experiment 1, 30 mg/kg oral with glucose 2 g/kg, 30 min): 159.8 ± 5.5 mg/dL
Blood Glucose, At Indicated Times (min.) After Oral Administration ([2]; Experiment 1, 30 mg/kg oral with glucose 2 g/kg, 60 min): 133.8 ± 4.1 mg/dL
Blood Glucose, At Indicated Times (min.) After Oral Administration ([2]; Experiment 1, 30 mg/kg oral with glucose 2 g/kg, 120 min): 109.6 ± 3.0 mg/dL

CN(C)C(=O)n1cnc(S(=O)(=O)[C@@H]2C[C@@H]3CC[C@H]2C3)n1 (relative stereo) [Example 13, 3-(Endo-norbornan-2-yl)sulfonyl-1-dimethylcarbamoyl-1H-1,2,4-triazole]
IC50 [1]: 164 nM
Blood Glucose, At Indicated Times (min.) After Oral Administration ([2]; Experiment 2, 3 mg/kg oral with glucose 2 g/kg, 0 min (immediately before administration)): 73.9 ± 3.0 mg/dL
Blood Glucose, At Indicated Times (min.) After Oral Administration ([2]; Experiment 2, 3 mg/kg oral with glucose 2 g/kg, 30 min): 177.7 ± 6.3 mg/dL
Blood Glucose, At Indicated Times (min.) After Oral Administration ([2]; Experiment 2, 3 mg/kg oral with glucose 2 g/kg, 60 min): 139.7 ± 6.7 mg/dL
Blood Glucose, At Indicated Times (min.) After Oral Administration ([2]; Experiment 2, 3 mg/kg oral with glucose 2 g/kg, 120 min): 92.5 ± 2.4 mg/dL
Blood Glucose, At Indicated Times (min.) After Oral Administration ([2]; Experiment 2, 10 mg/kg oral with glucose 2 g/kg, 0 min (immediately before administration)): 73.3 ± 2.8 mg/dL
Blood Glucose, At Indicated Times (min.) After Oral Administration ([2]; Experiment 2, 10 mg/kg oral with glucose 2 g/kg, 30 min): 159.9 ± 9.9 mg/dL
Blood Glucose, At Indicated Times (min.) After Oral Administration ([2]; Experiment 2, 10 mg/kg oral with glucose 2 g/kg, 60 min): 129.3 ± 9.1 mg/dL
Blood Glucose, At Indicated Times (min.) After Oral Administration ([2]; Experiment 2, 10 mg/kg oral with glucose 2 g/kg, 120 min): 90.6 ± 3.2 mg/dL
Blood Glucose, At Indicated Times (min.) After Oral Administration ([2]; Experiment 2, 30 mg/kg oral with glucose 2 g/kg, 0 min (immediately before administration)): 70.4 ± 4.0 mg/dL
Blood Glucose, At Indicated Times (min.) After Oral Administration ([2]; Experiment 2, 30 mg/kg oral with glucose 2 g/kg, 30 min): 148.7 ± 5.1 mg/dL
Blood Glucose, At Indicated Times (min.) After Oral Administration ([2]; Experiment 2, 30 mg/kg oral with glucose 2 g/kg, 60 min): 127.3 ± 5.9 mg/dL
Blood Glucose, At Indicated Times (min.) After Oral Administration ([2]; Experiment 2, 30 mg/kg oral with glucose 2 g/kg, 120 min): 93.7 ± 2.3 mg/dL
Blood Glucose, At Indicated Times (min.) After Oral Administration ([2]; Experiment 2, 100 mg/kg oral with glucose 2 g/kg, 0 min (immediately before administration)): 72.0 ± 2.1 mg/dL
Blood Glucose, At Indicated Times (min.) After Oral Administration ([2]; Experiment 2, 100 mg/kg oral with glucose 2 g/kg, 30 min): 147.1 ± 16.2 mg/dL
Blood Glucose, At Indicated Times (min.) After Oral Administration ([2]; Experiment 2, 100 mg/kg oral with glucose 2 g/kg, 60 min): 133.7 ± 8.8 mg/dL
Blood Glucose, At Indicated Times (min.) After Oral Administration ([2]; Experiment 2, 100 mg/kg oral with glucose 2 g/kg, 120 min): 106.2 ± 5.4 mg/dL
effect on glucose-tolerance ability of normal mice ([2]; oral administration, Experiments 1 and 2, result in words): distinct effect

COCCOc1cccc(C)c1S(=O)(=O)c1ncn(C(=O)N(C)C)n1 [Example 43, 3-[2-(2-Methoxyethyl)oxy-6-methylphenyl]sulfonyl-1-dimethylcarbamoyl-1H-1,2,4-triazole]
IC50 [1]: 4.34 nM
Blood Glucose, At Indicated Times After Glucose-Solution Administration (min.) ([3]; 0 min (immediately before glucose)): 89.8 ± 2.1 mg/dL
Blood Glucose, At Indicated Times After Glucose-Solution Administration (min.) ([3]; 30 min): 173.8 ± 5.1 mg/dL
Blood Glucose, At Indicated Times After Glucose-Solution Administration (min.) ([3]; 60 min): 170.8 ± 5.7 mg/dL
Blood Glucose, At Indicated Times After Glucose-Solution Administration (min.) ([3]; 120 min): 112.1 ± 2.5 mg/dL
Blood Glucose, At Indicated Times After Glucose-Solution Administration (min.) ([3]; −30 min (immediately before compound administration)): 70.8 ± 1.5 mg/dL
effect on glucose-tolerance ability of normal mice ([3]; oral administration, result in words): distinct effect

CCCN(C)C(=O)n1cnc(S(=O)(=O)[C@@H]2C[C@@H]3CC[C@H]2C3)n1 (relative stereo) [Example 28, 3-(Endo-norbornan-2-yl)sulfonyl-1-(N-methyl-N-propylcarbamoyl)-1H-1,2,4-triazole]
IC50 [1]: 58.4 nM

CN(C)C(=O)n1cnc(S(=O)(=O)N2C3CCCC2CC3)n1 [Example 55, 3-(8-Azabicyclo[3.2.1]octan-8-yl)sulfonyl-1-dimethylcarbamoyl-1H-1,2,4-triazole]
IC50 [1]: 96.1 nM

C=CCN(C)C(=O)n1cnc(S(=O)(=O)[C@@H]2C[C@@H]3CC[C@H]2C3)n1 (relative stereo) [Example 27, 3-(Endo-norbornan-2-yl)sulfonyl-1-(N-methyl-N-allylcarbamoyl)-1H-1,2,4-triazole]
IC50 [1]: 78.2 nM

CN(C)C(=O)n1cnc(Sc2cccc(Br)n2)n1 [Example 52, 3-(6-Bromo-2-pyridyl)thio-1-dimethylcarbamoyl-1H-1,2,4-triazole]
IC50 [1]: 4790 nM

CN(C)C(=O)n1cnc(S(=O)(=O)c2cccc(Br)n2)n1 [Example 53, 3-(6-Bromo-2-pyridyl)sulfonyl-1-dimethylcarbamoyl-1H-1,2,4-triazole]
IC50 [1]: 351 nM

CN(C)C(=O)n1cnc(SCC23CC4CC(CC(C4)C2)C3)n1 [Example 18, 3-(1-Adamantylmethyl)thio-1-dimethylcarbamoyl-1H-1,2,4-triazole]
IC50 [1]: 4530 nM

CN(C)C(=O)n1cnc(SC(c2ccc(F)cc2)c2ccc(F)cc2)n1 [Example 8, 3-[Bis(4-fluorophenyl)methyl]thio-1-dimethylcarbamoyl-1H-1,2,4-triazole]
IC50 [1]: 3360 nM

Cc1nc2ccccn2c1Sc1ncn(C(=O)N(C)C)n1 [Example 50, 3-(2-Methylimidazo[1,2-a]pyridin-3-yl)thio-1-dimethylcarbamoyl-1H-1,2,4-triazole]
IC50 [1]: 5380 nM

Cc1cc(C)c(S(=O)(=O)c2ncn(C(=O)N(C)C(C)C)n2)c(C)c1 [Example 38, 3-(2,4,6-Trimethylphenyl)sulfonyl-1-(N-methyl-N-isopropylcarbamoyl)-1H-1,2,4-triazole]
IC50 [1]: 1.63 nM

3-(Endo-norbornan-2-yl)sulfonyl-1-(N-methyl-N-phenylcarbamoyl)-1H-1,2,4-triazole [Example 22]
IC50 [1]: 2290 nM

CN(C)C(=O)n1cnc(S(=O)(=O)C2CCCCC2)n1 [Example 15, 3-Cyclohexylsulfonyl-1-dimethylcarbamoyl-1H-1,2,4-triazole]
IC50 [1]: 311 nM

CN(C)C(=O)n1cnc(S(=O)(=O)N2CCCCC2)n1 [Example 54, 3-(Piperidin-1-yl)sulfonyl-1-dimethylcarbamoyl-1H-1,2,4-triazole]
IC50 [1]: 164 nM

CN(C(=O)n1cnc(S(=O)(=O)[C@@H]2C[C@@H]3CC[C@H]2C3)n1)C(C)(C)C (relative stereo) [Example 31, 3-(Endo-norbornan-2-yl)sulfonyl-1-(N-methyl-N-tert-butylcarbamoyl)-1H-1,2,4-triazole]
IC50 [1]: 920 nM

Cc1ccc(S(=O)(=O)c2ccn(C(=O)N(C)C)n2)cc1 [Example 59, 3-(4-Toluenesulfonyl)-1-dimethylcarbamoyl-1H-pyrazole]
IC50 [1]: 4220 nM
